Experimental data from PMC8602723, “Comparative assessment of antimicrobial, antiradical and cytotoxic activities of cannabidiol and its propyl analogue cannabidivarin” (Scientific Reports, 2021).
Where two headings read alike, the source gives them in different places.

Experiments:
S. aureus = test system: S. aureus; set-up: method as in PMID 33469147; settings: S. aureus exposed at 6–14 µM; cited from earlier work
[1] = ABTS assay (radical scavenging); settings: for TEAC (Trolox equivalent antioxidant capacity), ABTS: EC50 Trolox/EC50 sample; for ABTS scavenging capacity less than the capacity of Trolox: compared with Trolox
Protocol: An ABTS assay was performed following the procedure described by Lavorgna et al. 2019[66]. The cationic ABTS radical (ABTS^+) was generated by oxidizing ABTS (7 mM) with potassium persulfate (140 mM K2S2O8), and the mixture was incubated for 12–16 h in the dark. The ABTS^+ working solution was diluted to an absorbance of […] OD at 734 nm. […] Distilled water was used for the blank, Trolox was used for the standard control, and methanol was used for the solvent control.
The results are expressed as the median effective concentration (EC50). Furthermore, Trolox equivalent antioxidant capacity (TEAC) values were calculated following the procedure used by Shimamura end colleagues[68]:5 TEAC=EC50Trolox/EC50sample
(§1) All results from five independent experiments are expressed as the IC50 or EC50 as determined by analysis with Prism 5 software (GraphPad Inc., San Diego, CA, USA) and nonlinear regression (log agonist vs. normalized response-variable slope) with a 95% confidence range. Lowest observed adverse effect concentrations (LOAECs) were calculated by one-way ANOVA and Dunnett’s comparison test. Differences compared to the controls were considered significant as follows: *p < 0.05, **p < 0.001 and ***p < 0.0001.

Caco-2 cells = test: MTT assay (mitochondrial metabolism); assay type: cell-based, human; settings: for LOAEC MTT assay: Caco-2, same value after each exposure time (24, 48, 72 h); for IC50: Homo sapiens, read-out: IC50 MTT assay
Excerpt: (§2) MTT assay is the most commonly used method for high-throughput identification of the antiproliferative effects of compounds on cultured cells and is indirectly correlated with mitochondria-dependent apoptosis progression[59]–[61]. The production of reducing equivalents such as NADH in metabolically active cells is an indicator of “cell redox activity”, indirectly reflecting the number of viable cells[60],[61] and the mitochondrial metabolic rate in cells[62],[63].
(§3) A549, Caco-2, HepG2 and TelCOFS02MA cells (1 × 10^4 cells/well), and MDA-MB-231 cells (0.5 × 10^4 cells/well) were seeded in 100 µL of fresh medium into 96-well plates (TC-Plate 96 wells, Sarstedt, Verona, Italy) in quadruplicate for 24 h at 37 °C in a humidified atmosphere of 95% air plus 5% CO2. Then, the medium was removed and replaced with 200 µL of media with different concentrations of CBD (5–80 µM, dilution factor [DF] equal to 2) and CBDV (5.5–88 µM, DF = 2) chosen on the basis of range-finding tests (0.5, 5, and 50 mg/L). We chose 1.56–25 mg/L to be tested and, to make easier the comparison between the two cannabinoids activities, the concentrations were reported in [μM]. In all experiments, negative controls (wells containing cells exposed only to the medium) and solvent controls (wells containing cells exposed to 2.5% methanol) were included. The plates were incubated at 37 °C for three exposure times: 24, 48 and 72 h (different plates were prepared for each specific time point). Then, MTT solution (5 mg/mL) was added to each well, and the plates were re-incubated for 4 h at 37 °C. The culture medium was removed, and 2-propanol was used to dissolve formazan crystals. The absorbance of formazan was measured spectrophotometrically at 590 nm using an automated microplate reader (Synergy H1, Biotek, Winooski, USA). The results are reported as the percentages of cells with inhibited proliferation, as determined by the link between the inhibition of mitochondrial metabolic activity and proliferation. The results were calculated with the following formula:1 IC%=1-OD590sample/OD590negativecontrol·100
(§4) Furthermore, IC50 values (concentrations of the sample used to obtain an inhibition of 50% of cell growth/metabolic activity) were calculated.
as §1

MDA-MB-231 cells = test: MTT assay (mitochondrial metabolism); assay type: cell-based, human; settings: for IC50: Homo sapiens, read-out: IC50 MTT assay
Excerpt: as §2, §3, §4, §1

TelCOFS02MA cells = test: MTT assay (mitochondrial metabolism); assay type: cell-based, human; settings: for IC50: Homo sapiens, read-out: IC50 MTT assay
Excerpt: as §2, §3, §4, §1

[2] = test system: SZ95, normal-like sebocytes; set-up: method as in PMID 27094344; settings: 24 h of treatment; cited from earlier work

| Structure (SMILES) | protein, DNA, RNA and peptidoglycan synthesis (S. aureus) | TEAC (Trolox equivalent antioxidant capacity), ABTS [1] | ABTS scavenging capacity less than the capacity of Trolox [1] [%] | LOAEC MTT assay (Caco-2 cells) [µM] | IC50 (Caco-2 cells; Caco-2, 72 h exposure, 95% confidence interval in brackets) [µM] | IC50 (MDA-MB-231 cells; MDA-MB-231, 72 h exposure, 95% confidence interval in brackets) [µM] | LOAEC MTT assay (MDA-MB-231 cells; MDA-MB-231, 24 h) [µM] | LOAEC MTT assay (MDA-MB-231 cells; MDA-MB-231, 48 h) [µM] | IC50 (TelCOFS02MA cells; TelCOFS02MA, 72 h exposure, 95% confidence interval in brackets) [µM] | LOAEC MTT assay (TelCOFS02MA cells; TelCOFS02MA, same value for the entire treatment period (24, 48, 72 h)) [µM] | concentration giving a significant decrease in cell viability (MTT) [2] [nM] | IC50 (Caco-2 cells; Caco-2, 72 h) [µM] | IC50 (MDA-MB-231 cells; MDA-MB-231, 72 h) [µM] | IC50 (TelCOFS02MA cells; 72 h) [µM] | LOAEC MTT assay (TelCOFS02MA cells; TelCOFS02MA, 24 h) [µM] | LOAEC MTT assay (TelCOFS02MA cells; TelCOFS02MA, 48 h) [µM] | LOAEC MTT assay (TelCOFS02MA cells; TelCOFS02MA, 72 h) [µM] |
| --- | --- | --- | --- | --- | --- | --- | --- | --- | --- | --- | --- | --- | --- | --- | --- | --- | --- |
| C=C(C)[C@@H]1CCC(C)=C[C@H]1c1c(O)cc(CCCCC)cc1O [CBD, Cannabidiol] | inhibited | 0.21 | 79 | 20 | 35.2 | 25.8 | 20 | 10 | 31.9 | 20 | – | – | – | – | – | – | – |
| C=C(C)[C@@H]1CCC(C)=C[C@H]1c1c(O)cc(CCC)cc1O [CBDV, cannabidivarin] | – | 0.27 | 73 | 44 | – | – | 44 | 22 | – | – | 100 | 46 | 38.1 | 42.3 | 88 | 44 | 11 |
